{"source": "patent US10464941B2", "about": "“Therapeutic compounds” (REGENTS OF THE UNIVERSITY OF MINNESOTA, priority 2015, dated 2019)", "key": {"LPS-pretreated mice [1]": {"test_system": "LPS-pretreated mice", "assay": "Effect of minocycline on MCC22 antinociception in LPS-pretreated mice (tail flick)", "assay_type": "in vivo", "conditions": "for MPE after minocycline: MCC22 1 pmol/mouse i.t.", "experimental": "Effect of Minocycline in Mice Pretreated by LPS and Blockage of Antinociception of MCC22.\nThree separate groups of mice (n=8) were pretreated with 1 mg/kg of LPS (i.p.). At 24 hours the baseline antinociception was measured using the tail flick assay to calculate % MPE. […] […] The dose used for MCC22 is a hundred times the ED50 dose of LPS pretreated mice with MCC22."}, "control mice": {"test_system": "control mice", "assay": "Radiant heat tail-flick antinociception, control (LPS-untreated) mice", "assay_type": "in vivo", "description": "Pain is a hallmark of many inflammatory conditions."}, "LPS-pretreated mice [2]": {"test_system": "LPS-pretreated mice", "assay": "animal or person", "conditions": "for LPS pretreated i.c.v./i.t. ratio / LPS pretreated ED50 (CI) i.t.: LPS 1 mg/kg 24 hours i.p.; for LPS pretreated ED50 (CI) i.t.: tail flick", "experimental": "Male ICR-CD1 mice (17-25 g; Harlan, Madison, Wis.), C3H mice (15-20 g, National Cancer Institute, Bethesda, Md.) or TLR4 knock-out mice (gift from Dr. Sabita Roy) were housed, 4 to a small box in a temperature- and humidity-controlled environment with unlimited access to food and water. They were maintained on a 12 h light/dark cycle. All experiments were approved by the Institutional Animal Care and Use Committee of the University of Minnesota (Minneapolis, Minn.).\nThe tail flick assay is used to test for antinociception described by D'Amour and Smith^64 and modified by Dewey et. al.^65 Mice are held gently in one hand with the tail positioned in the apparatus (Tail Flick Analgesia Meter, Columbus Instruments, Columbus, Ohio) for radiant heat stimulus. The tail-flick response is elicited by applying radiant heat to the dorsal side of the tail. The test latency is measured before drug treatment (control) and again after the drug treatment (test) at the peak time of the compound, a 10 s maximum cut-off time is used to prevent damage to the tail. Antinociception is quantified according to the method of Harris and Pierson^66 as the percent maximal possible effect (% MPE) which is calculated as: % MPE=(Test−Control/10−Control)×100\nA minimum of three groups of eight to ten mice are used for each dose response curve, and each mouse is used only once.\nThe compounds were tested for acute tolerance by comparing the ED80-90 dose measured on day 1 to the same dose administered and retested 24 hours later on the same mouse.\nCompounds were dissolved in 5% DMSO and diluted to less than 1% DMSO for injection. These compounds were administered in a volume of 5-μl either i.c.v (Haley and McCormick) or intrathecal (i.t.) as described for mice by Hylden and Wilcox^67 in conscious mice. […] Time course studies, including the times 5, 10, 20, 30 and 60 minutes were used to determine the peak antinociception.\nPain is a hallmark of many inflammatory conditions. […] Antinociception was evaluated using the radiant heat-induced tailflick assay. Morphine was employed as a standard opioid agonist under these conditions."}}, "note": "“And” between values parts separate entries of the source, which are not always exact repeats. Equal values may be shown once. Marks after values point to notes of the source that are not given here."}
{"smiles": "Cc1ccc(N(CCCN2CCC(Cc3ccc(C(N)=O)cc3)CC2)C(=O)C2CCN(C(=O)COCC(=O)NCCCCCCCCCCNC(=O)COCC(=O)N[C@H]3CC[C@@]4(O)C5Cc6ccc(O)c7c6[C@@]4(CCN5C)[C@H]3O7)CC2)cc1Cl", "note": "[Compound 3e, N-(3-(4-(4-carbamoylbenzyl)piperidin-1-yl)propyl)-N-(3-chloro-4-methylphenyl)-1-(22-(((4aS,7S,7aR,12bS)-4a,9-dihydroxy-3-methyl-2,3,4,4a,5,6,7,7a-octahydro-1H-4,12-methanobenzofuro[3,2-e]isoquinolin-7-yl)amino)-5,18,22-trioxo-3,20-dioxa-6,17-diazadocosan-1-oyl)piperidine-4-carboxamide]", "values": [{"measurement": "MPE after minocycline", "setting": "LPS-pretreated mice [1]; 60 min after minocycline 45 mg/kg i.p., LPS pretreated", "result": 100, "unit": "%"}, {"measurement": "MPE after minocycline", "setting": "LPS-pretreated mice [1]; 120 min after minocycline 45 mg/kg i.p., LPS pretreated", "result": "52.04%±17.04"}, {"measurement": "MPE after minocycline", "setting": "LPS-pretreated mice [1]; 240 min after minocycline 45 mg/kg i.p., LPS pretreated", "result": "10.7%±5.17"}, {"measurement": "% MPE", "setting": "LPS-pretreated mice [1]; LPS 24 hours, minocycline 4 hours, 1000 pmol/mouse MCC22", "result": "49.35±14.38", "unit": "% MPE"}, {"measurement": "FIG. 4 LPS/minocycline/MCC22 (value with interval)", "setting": "LPS-pretreated mice [1]; LPS pretreated, minocycline 45 mg/kg i.p. prior to testing", "result": "1016 (54-1558)"}, {"measurement": "CONTROLS i.c.v./i.t. ratio", "setting": "control mice; control mice", "result": "10.93^e"}, {"measurement": "percent maximal possible effect at highest dose measured", "setting": "control mice; control mice, i.c.v., 500 pmol/mouse", "result": "49.7 ± 14.9", "unit": "%"}, {"measurement": "acute tolerance (ED80 retested 24 hours later)", "setting": "control mice; control mice, i.t.", "result": "(23.1-90.8)^b"}, {"measurement": "CONTROLS ED50 (CI) i.t.", "setting": "control mice; control mice, i.t., tail flick", "result": 45.8, "unit": "pmol/mouse"}, {"measurement": "CONTROLS i.c.v./i.t. ratio", "setting": "control mice; control mice, listed as MCC22", "result": 11}, {"measurement": "potency increase over 3c", "setting": "control mice; i.t., LPS-untreated control mice", "result": "~4", "unit": "fold"}, {"measurement": "FIG. 4 naïve/MCC22 (value with interval)", "setting": "control mice; naïve mice", "result": "45.75 (23.05-90.81)"}, {"measurement": "LPS pretreated i.c.v./i.t. ratio", "setting": "LPS-pretreated mice [2]", "result": "~34,000^d"}, {"measurement": "LPS pretreated ED50 (CI) i.t.", "setting": "LPS-pretreated mice [2]; i.t.", "result": 0.0149, "unit": "pmol/mouse"}, {"measurement": "LPS pretreated ED50 (CI) i.t.", "setting": "LPS-pretreated mice [2]; i.t., listed as MCC22", "result": 0.0146, "unit": "pmol/mouse"}, {"measurement": "LPS pretreated i.c.v./i.t. ratio", "setting": "LPS-pretreated mice [2]; listed as MCC22", "result": "34,000 and 34,223"}, {"measurement": "FIG. 4 LPS/MCC22 (value with interval)", "setting": "LPS-pretreated mice [2]; LPS pretreated mice", "result": "0.015 (0.01-0.03)"}, {"measurement": "percent maximal possible effect at highest dose measured", "setting": "LPS-pretreated mice [2]; LPS pretreated, i.c.v., 500 pmol/mouse", "result": "41.1 ± 12.9", "unit": "%"}, {"measurement": "potency in TLR4 KO mice", "setting": "LPS-pretreated mice [2]; LPS-pretreated TLR4 KO mice", "result": "not reduced"}, {"measurement": "effect of MK801 on antinociception", "setting": "LPS-pretreated mice [2]; LPS-pretreated mice treated i.t. with NMDA receptor antagonist MK801, then MCC22", "result": "virtually no effect"}, {"measurement": "i.t. potency ratio, morphine/MCC22", "setting": "LPS-pretreated mice [2]; LPS-pretreated mice, i.t.", "result": 2400}, {"measurement": "ED50", "setting": "LPS-pretreated mice [2]; Mus musculus, ip, read-out: ED50 i.p.", "result": 5.6, "unit": "µmol/kg"}, {"measurement": "ED50 values (95% CI) LPS (thermal)", "setting": "LPS-pretreated mice [2]; i.t., LPS thermal hyperalgesia model", "result": 0.015, "unit": "pmol/mouse"}, {"measurement": "potency increase over 19-atom spacer homologue 3c", "setting": "LPS-pretreated mice [2]; i.t., LPS-pretreated mice", "result": "> 700", "unit": "fold"}, {"measurement": "tolerance upon repeated administration", "setting": "LPS-pretreated mice [2]; i.t., LPS-pretreated mice", "result": "without signs of tolerance"}, {"measurement": "potency increase over 19-atom spacer homologue 3c", "setting": "LPS-pretreated mice [2]; i.t., LPS-pretreated mice, listed as MCC22", "result": "at least 700 fold"}, {"measurement": "LPS-treated/control potency ratio", "setting": "LPS-pretreated mice [2]; i.t., listed as MCC22", "result": "3070 and 3131"}, {"measurement": "ED50 potency ratio (β-FNA-treated/control)", "setting": "LPS-pretreated mice [2]; inflamed mice pretreated with β-FNA", "result": 96.6}, {"measurement": "Relative Potency relative to a mixture of monovalent mu agonist (4) and CCR5 antagonist (2)", "setting": "LPS-pretreated mice [2]; mouse, in vivo", "result": "~3500"}, {"measurement": "potency relative to morphine or monovalent control ligand 4", "setting": "LPS-pretreated mice [2]; mouse, in vivo", "result": "~1500", "unit": "fold"}, {"measurement": "Relative Potency relative to a mixture of monovalent mu agonist (4) and CCR5 antagonist (2)", "setting": "LPS-pretreated mice [2]; mouse, in vivo, listed as MCC22", "result": 3500}]}
